Consider one compound from publication PMC5218480 (PLoS ONE, 2017).

The subject of the test is MV-4-11 cells. As to the kind of experiment: Gene expression microarray analysis (Affymetrix PrimeView) and GSEA. The settings on record: ProbeSet 11732370_a_at; LIST D. Set-up: RFU PODN (11730768_x_at) / Fold change /veh PODN (11730768_x_at) / RFU LINC00158 (11744669_a_at) / Fold change /veh LINC00158 (11744669_a_at) / RFU DUSP10 (11751237_a_at) / Fold change /veh DUSP10 (11751237_a_at) / RFU ID3 (11757404_x_at) / Fold change /veh ID3 (11757404_x_at) / RFU PLEKHG5 (11737974_s_at) / Fold change /veh PLEKHG5 (11737974_s_at) / RFU LRRC4B (11730491_at) / Fold change /veh LRRC4B (11730491_at) / RFU GIMAP4 (11747438_a_at) / Fold change /veh GIMAP4 (11747438_a_at) / RFU KRT8 (11758183_x_at) / Fold change /veh KRT8 (11758183_x_at) / RFU CNN1 (11734310_a_at) / Fold change /veh CNN1 (11734310_a_at) / RFU VPS37D (11726825_at) / Fold change /veh VPS37D (11726825_at) / RFU C10orf10 (11716522_x_at) / Fold change /veh C10orf10 (11716522_x_at) / RFU KIR2DL2 /// KIR2DL4 /// KIR2DL5A /// KIR2DL5B /// KIR2DS1 /// KIR2DS2 /// KIR2DS3 /// KIR2DS4 /// KIR3DL3 /// KIR3DL3 /// KIR3DS1 (11738374_at) / Fold change /veh KIR2DL2 /// KIR2DL4 /// KIR2DL5A /// KIR2DL5B /// KIR2DS1 /// KIR2DS2 /// KIR2DS3 /// KIR2DS4 /// KIR3DL3 /// KIR3DL3 /// KIR3DS1 (11738374_at) / RFU C1QL1 (11718748_at) / Fold change /veh C1QL1 (11718748_at) / RFU TMPRSS4 (11747572_a_at) / Fold change /veh TMPRSS4 (11747572_a_at) / RFU HAMP (11756126_x_at) / Fold change /veh HAMP (11756126_x_at) / RFU RNFT2 (11725882_a_at) / Fold change /veh RNFT2 (11725882_a_at) / RFU NR4A2 (11747474_a_at) / Fold change /veh NR4A2 (11747474_a_at) / RFU ABCC12 (11746883_a_at) / Fold change /veh ABCC12 (11746883_a_at) / RFU TMEM136 (11760407_x_at) / Fold change /veh TMEM136 (11760407_x_at) / RFU CLDN22 /// WWC2 (11732394_at) / Fold change /veh CLDN22 /// WWC2 (11732394_at) / RFU HLA-DPB1 (11760878_x_at) / Fold change /veh HLA-DPB1 (11760878_x_at) / RFU SPINT1 (11716480_a_at) / Fold change /veh SPINT1 (11716480_a_at) / RFU GAP43 (11754022_s_at) / Fold change /veh GAP43 (11754022_s_at) / RFU A4GNT (11735810_at) / Fold change /veh A4GNT (11735810_at) / RFU PRB3 (11715151_x_at) / Fold change /veh PRB3 (11715151_x_at) / RFU TUBB4B (11761932_at) / Fold change /veh TUBB4B (11761932_at) / RFU CAPN14 (11732068_a_at) / Fold change /veh CAPN14 (11732068_a_at) / RFU TMCC2 (11721928_a_at) / Fold change /veh TMCC2 (11721928_a_at) / RFU IRGQ (11745062_a_at) / Fold change /veh IRGQ (11745062_a_at) / RFU FAM174B (11720279_a_at) / Fold change /veh FAM174B (11720279_a_at) / RFU TMPRSS4 (11748680_a_at) / Fold change /veh TMPRSS4 (11748680_a_at) / RFU FAM212B (11763350_a_at) / Fold change /veh FAM212B (11763350_a_at) / RFU PLEKHG5 (11743358_a_at) / Fold change /veh PLEKHG5 (11743358_a_at) / RFU ZSCAN30 (11745921_a_at) / Fold change /veh ZSCAN30 (11745921_a_at) / RFU CMKLR1 (11741424_a_at) / Fold change /veh CMKLR1 (11741424_a_at) / RFU LOC101060620 /// MAPK8IP1 (11723275_at) / Fold change /veh LOC101060620 /// MAPK8IP1 (11723275_at) / RFU SPTSSB (11747773_x_at) / Fold change /veh SPTSSB (11747773_x_at) / RFU PRSS12 (11739890_at) / Fold change /veh PRSS12 (11739890_at) / RFU BIN1 (11741810_x_at) / Fold change /veh BIN1 (11741810_x_at) / RFU WNT11 (11732464_a_at) / Fold change /veh WNT11 (11732464_a_at) / RFU C10orf10 (11716521_a_at) / Fold change /veh C10orf10 (11716521_a_at) / RFU C5orf56 (11738089_at) / Fold change /veh C5orf56 (11738089_at) / RFU CYB561 (11721691_x_at) / Fold change /veh CYB561 (11721691_x_at) / RFU ANKRD19P (11752326_a_at) / Fold change /veh ANKRD19P (11752326_a_at) / RFU OR2T12 /// OR2T33 /// OR2T8 (11738714_s_at) / Fold change /veh OR2T12 /// OR2T33 /// OR2T8 (11738714_s_at) / RFU VCAN (11748164_a_at) / Fold change /veh VCAN (11748164_a_at) / RFU JSRP1 (11732532_at) / Fold change /veh JSRP1 (11732532_at) / RFU KRTAP10-11 (11738290_x_at) / Fold change /veh KRTAP10-11 (11738290_x_at) / RFU MYO3A (11730013_a_at) / Fold change /veh MYO3A (11730013_a_at) / RFU EBF3 (11725865_a_at) / Fold change /veh EBF3 (11725865_a_at) / RFU CAMK2N1 (11719241_x_at) / Fold change /veh CAMK2N1 (11719241_x_at) / RFU C5orf56 (11738088_a_at) / Fold change /veh C5orf56 (11738088_a_at) / RFU OLFML3 (11715873_a_at) / Fold change /veh OLFML3 (11715873_a_at) / RFU LOC100653217 /// NTM (11731650_a_at) / Fold change /veh LOC100653217 /// NTM (11731650_a_at) / RFU MAPK11 (11762145_a_at) / Fold change /veh MAPK11 (11762145_a_at) / RFU FIZ1 (11724087_x_at) / Fold change /veh FIZ1 (11724087_x_at) / RFU OASL (11726364_x_at) / Fold change /veh OASL (11726364_x_at) / RFU SOX15 (11748057_x_at) / Fold change /veh SOX15 (11748057_x_at) / RFU CD79A (11719716_a_at) / Fold change /veh CD79A (11719716_a_at) / RFU HIST1H1D (11736915_at) / Fold change /veh HIST1H1D (11736915_at) / RFU CASKIN2 (11723855_a_at) / Fold change /veh CASKIN2 (11723855_a_at) / RFU LOC730098 (11760151_x_at) / Fold change /veh LOC730098 (11760151_x_at) / RFU OR4N2 (11742367_at) / Fold change /veh OR4N2 (11742367_at) / RFU PRRT2 (11749266_a_at) / Fold change /veh PRRT2 (11749266_a_at) / RFU SNX32 (11753110_a_at) / Fold change /veh SNX32 (11753110_a_at) / RFU CDHR5 (11726645_a_at) / Fold change /veh CDHR5 (11726645_a_at) / RFU RCAN1 (11760418_a_at) / Fold change /veh RCAN1 (11760418_a_at) / RFU FAM167A (11723789_a_at) / Fold change /veh FAM167A (11723789_a_at) / RFU FAM26E (11764081_at) / Fold change /veh FAM26E (11764081_at) / RFU ISYNA1 (11749810_s_at) / Fold change /veh ISYNA1 (11749810_s_at) / RFU ACY1 (11761880_at) / Fold change /veh ACY1 (11761880_at) / RFU 11764098_at / Fold change /veh 11764098_at / RFU SAMD14 (11745864_x_at) / Fold change /veh SAMD14 (11745864_x_at) / RFU NPB (11741838_a_at) / Fold change /veh NPB (11741838_a_at) / RFU TMPRSS6 (11731388_a_at) / Fold change /veh TMPRSS6 (11731388_a_at) / RFU KRTAP10-2 (11738614_at) / Fold change /veh KRTAP10-2 (11738614_at) / RFU ARHGAP8 /// PRR5-ARHGAP8 (11727945_x_at) / Fold change /veh ARHGAP8 /// PRR5-ARHGAP8 (11727945_x_at) / RFU KRTAP5-7 /// NADSYN1 (11734609_at) / Fold change /veh KRTAP5-7 /// NADSYN1 (11734609_at) / RFU RASL12 (11751679_a_at) / Fold change /veh RASL12 (11751679_a_at) / RFU CDKN2B (11736163_a_at) / Fold change /veh CDKN2B (11736163_a_at) / RFU PRF1 (11729649_at) / Fold change /veh PRF1 (11729649_at) / RFU, ZNF638 /// ZNF638-IT1 / Fold change vs veh, ZNF638 /// ZNF638-IT1 / RFU, PANK3 / Fold change vs veh, PANK3 / RFU, SH3YL1 / Fold change vs veh, SH3YL1 / RFU, ZEB2 / Fold change vs veh, ZEB2 / RFU, NRIP1 / Fold change vs veh, NRIP1 / RFU, PTTG1IP / Fold change vs veh, PTTG1IP / RFU, CAPN2 / Fold change vs veh, CAPN2 / RFU, MED14 / Fold change vs veh, MED14 / RFU, SNORA58 / Fold change vs veh, SNORA58 / RFU, C1orf63 / Fold change vs veh, C1orf63 / RFU, LRRFIP1 / Fold change vs veh, LRRFIP1 / RFU, NDUFAF7 / Fold change vs veh, NDUFAF7 / RFU, SLC12A2 / Fold change vs veh, SLC12A2 / RFU, IBTK / Fold change vs veh, IBTK / RFU, ESF1 / Fold change vs veh, ESF1 / Fold change vs veh, TMEM50B / RFU, TAOK1 / Fold change vs veh, TAOK1 / RFU, ACBD3 / Fold change vs veh, ACBD3 / RFU, TMA16 / Fold change vs veh, TMA16 / RFU, RWDD3 / Fold change vs veh, RWDD3 / RFU, BCAT1 / Fold change vs veh, BCAT1 / RFU, EDEM3 / Fold change vs veh, EDEM3 / RFU, TMEM33 / Fold change vs veh, TMEM33 / RFU, WDR75 / Fold change vs veh, WDR75 / RFU, AHCTF1 / Fold change vs veh, AHCTF1 / RFU, TFRC / Fold change vs veh, TFRC / RFU, ZDHHC17 / Fold change vs veh, ZDHHC17 / RFU, NOM1 / Fold change vs veh, NOM1 / RFU, ARL8B / Fold change vs veh, ARL8B / RFU, ZBTB11 / Fold change vs veh, ZBTB11 / RFU, TAMM41 / Fold change vs veh, TAMM41 / RFU, KIAA1704 /// LOC100996395 / Fold change vs veh, KIAA1704 /// LOC100996395 / RFU, ING1 / Fold change vs veh, ING1 / RFU, TRMT61B / Fold change vs veh, TRMT61B / RFU, FUBP3 / Fold change vs veh, FUBP3 / RFU, TP53 / Fold change vs veh, TP53 / RFU, TNKS2 / Fold change vs veh, TNKS2 / RFU, ZFP14 / Fold change vs veh, ZFP14 / RFU, ACTR2 / Fold change vs veh, ACTR2 / RFU, PPP3R1 / Fold change vs veh, PPP3R1 / RFU, PIK3R1 / Fold change vs veh, PIK3R1 / RFU, HNRNPA1 / Fold change vs veh, HNRNPA1 / RFU, RNF170 / Fold change vs veh, RNF170 / RFU, ZNF28 / Fold change vs veh, ZNF28 / RFU, RNGTT / Fold change vs veh, RNGTT / RFU, OGT / Fold change vs veh, OGT / RFU, BRD1 / Fold change vs veh, BRD1 / RFU, MARS / Fold change vs veh, MARS / RFU, ZNF655 / Fold change vs veh, ZNF655 / RFU, FAHD1 / Fold change vs veh, FAHD1 / RFU, BDP1 / Fold change vs veh, BDP1 / RFU, LRRCC1 / Fold change vs veh, LRRCC1 / RFU, ARID1A / Fold change vs veh, ARID1A / RFU, ZNF146 / Fold change vs veh, ZNF146 / RFU, ZNF330 / Fold change vs veh, ZNF330 / RFU, GPN3 / Fold change vs veh, GPN3 / RFU, C9orf123 / Fold change vs veh, C9orf123 / RFU, N4BP2L2 / Fold change vs veh, N4BP2L2 / RFU, ARFIP1 / Fold change vs veh, ARFIP1 / RFU, FAM179B / Fold change vs veh, FAM179B / RFU, BCL10 / Fold change vs veh, BCL10 / RFU, UHRF1BP1L / Fold change vs veh, UHRF1BP1L / RFU, BET1 / Fold change vs veh, BET1 / RFU, CNOT2 / Fold change vs veh, CNOT2 / RFU, ZNF268 / Fold change vs veh, ZNF268 / Fold change vs veh, ZNF507 / RFU, DGCR2 / Fold change vs veh, DGCR2 / RFU, WDSUB1 / Fold change vs veh, WDSUB1 / Fold change vs veh, HSP90B1 /// MIR3652 / RFU, ADSS / Fold change vs veh, ADSS / RFU, GK / Fold change vs veh, GK / RFU, ZNF148 / Fold change vs veh, ZNF148 / RFU, TAF9 / Fold change vs veh, TAF9 / RFU, SLC1A5 / Fold change vs veh, SLC1A5 / RFU, SLMO2 / Fold change vs veh, SLMO2 / RFU, ABCC4 / Fold change vs veh, ABCC4 / RFU, LOC101060439 /// RAP1B / Fold change vs veh, LOC101060439 /// RAP1B / RFU, RFX7 / Fold change vs veh, RFX7 / RFU, GTPBP10 / Fold change vs veh, GTPBP10 / RFU, CNEP1R1 / Fold change vs veh, CNEP1R1 / RFU, BIVM-ERCC5 /// ERCC5 / Fold change vs veh, BIVM-ERCC5 /// ERCC5 / RFU, ILF3 / Fold change vs veh, ILF3 / RFU 11762660_at / Fold change /veh 11762660_at / RFU VCAN (11757783_s_at) / Fold change /veh VCAN (11757783_s_at) / RFU DDX43 (11728927_at) / Fold change /veh DDX43 (11728927_at) / RFU KRT8 (11758188_x_at) / Fold change /veh KRT8 (11758188_x_at) / RFU NKD1 (11759106_at) / Fold change /veh NKD1 (11759106_at) / RFU SRD5A1 (11742802_a_at) / Fold change /veh SRD5A1 (11742802_a_at) / RFU TPSAB1 /// TPSB2 (11721975_s_at) / Fold change /veh TPSAB1 /// TPSB2 (11721975_s_at) / RFU GSTM3 (11746129_a_at) / Fold change /veh GSTM3 (11746129_a_at) / RFU IL23R (11737362_x_at) / Fold change /veh IL23R (11737362_x_at) / RFU TMEM51 (11727254_a_at) / Fold change /veh TMEM51 (11727254_a_at) / RFU PIWIL2 (11732686_x_at) / Fold change /veh PIWIL2 (11732686_x_at) / RFU ORM1 (11744905_x_at) / Fold change /veh ORM1 (11744905_x_at) / RFU CCDC152 (11743942_at) / Fold change /veh CCDC152 (11743942_at) / RFU ECM1 (11717891_a_at) / Fold change /veh ECM1 (11717891_a_at) / RFU IL23R (11748794_a_at) / Fold change /veh IL23R (11748794_a_at) / RFU TNFAIP8L3 (11732012_x_at) / Fold change /veh TNFAIP8L3 (11732012_x_at) / RFU MBOAT4 (11741988_at) / Fold change /veh MBOAT4 (11741988_at) / RFU 11764193_at / Fold change /veh 11764193_at / RFU TMEM53 (11763286_at) / Fold change /veh TMEM53 (11763286_at) / RFU MAGEB2 (11727129_at) / Fold change /veh MAGEB2 (11727129_at) / RFU TMEM200A (11744735_a_at) / Fold change /veh TMEM200A (11744735_a_at) / RFU CCDC152 (11751479_a_at) / Fold change /veh CCDC152 (11751479_a_at) / RFU FAM211A (11726209_a_at) / Fold change /veh FAM211A (11726209_a_at) / RFU RGS16 (11746705_a_at) / Fold change /veh RGS16 (11746705_a_at) / RFU VCAN (11755009_s_at) / Fold change /veh VCAN (11755009_s_at) / RFU RHOB (11743442_s_at) / Fold change /veh RHOB (11743442_s_at) / RFU RGS16 (11720943_a_at) / Fold change /veh RGS16 (11720943_a_at) / RFU RGS16 (11720944_at) / Fold change /veh RGS16 (11720944_at) / RFU, VPS4B / Fold change vs veh, VPS4B / RFU, CREB1 / Fold change vs veh, CREB1 / RFU, DNAJC13 / Fold change vs veh, DNAJC13 / RFU, GNAQ / Fold change vs veh, GNAQ / RFU, CDK5R1 / Fold change vs veh, CDK5R1 / RFU, ZRANB3 / Fold change vs veh, ZRANB3 / RFU, CUL4A / Fold change vs veh, CUL4A / RFU, CCNY / Fold change vs veh, CCNY / RFU, UFL1 / Fold change vs veh, UFL1 / RFU, COG3 / Fold change vs veh, COG3 / RFU, DIAPH2 / Fold change vs veh, DIAPH2 / RFU, SKA2 / Fold change vs veh, SKA2 / RFU, AFF3 / Fold change vs veh, AFF3 / RFU, LMF1 / Fold change vs veh, LMF1 / RFU, IPO11 / Fold change vs veh, IPO11 / RFU, DFFB / Fold change vs veh, DFFB / RFU, FOXP1 / Fold change vs veh, FOXP1 / RFU, CARD8 / Fold change vs veh, CARD8 / RFU, STRN3 / Fold change vs veh, STRN3 / RFU, ADK / Fold change vs veh, ADK / RFU, RASSF2 / Fold change vs veh, RASSF2 / RFU, WIPF1 / Fold change vs veh, WIPF1 / RFU, LARP1B / Fold change vs veh, LARP1B / RFU, RASA1 / Fold change vs veh, RASA1 / RFU, RB1 / Fold change vs veh, RB1 / RFU, PPFIA1 / Fold change vs veh, PPFIA1 / RFU, MAT2A / Fold change vs veh, MAT2A / RFU, CCT5 / Fold change vs veh, CCT5 / RFU, WDR92 / Fold change vs veh, WDR92 / RFU, CUX1 / Fold change vs veh, CUX1 / RFU, TTC7A / Fold change vs veh, TTC7A / RFU, TMEM135 / Fold change vs veh, TMEM135 / RFU, DEPTOR / Fold change vs veh, DEPTOR / RFU, CPM / Fold change vs veh, CPM / RFU, DNAJB6 / Fold change vs veh, DNAJB6 / RFU, CACNA2D3 / Fold change vs veh, CACNA2D3 / RFU, DTX4 / Fold change vs veh, DTX4 / RFU, TFCP2 / Fold change vs veh, TFCP2 / RFU, GMCL1 /// GMCL1P1 / Fold change vs veh, GMCL1 /// GMCL1P1 / RFU, AEBP2 / Fold change vs veh, AEBP2 / RFU, SNHG1 /// SNORD22 /// SNORD25 /// SNORD26 /// SNORD27 /// SNORD28 /// SNORD29 /// SNORD31 / Fold change vs veh, SNHG1 /// SNORD22 /// SNORD25 /// SNORD26 /// SNORD27 /// SNORD28 /// SNORD29 /// SNORD31 / Fold change (Aza/veh), C12orf56 (ProbeSet 11735607_a_at) / Fold change (ACY-1035/veh), C12orf56 (ProbeSet 11735607_a_at) / Fold change (Aza/veh), FGFR1OP (ProbeSet 11751329_s_at) / Fold change (ACY-1035/veh), FGFR1OP (ProbeSet 11751329_s_at) / Fold change (Aza/veh), VPS36 (ProbeSet 11739960_a_at) / Fold change (ACY-1035/veh), VPS36 (ProbeSet 11739960_a_at) / RFU SYPL1 (11715823_x_at) / Fold change /veh SYPL1 (11715823_x_at) / RFU IGFBP7 (11715501_s_at) / Fold change /veh IGFBP7 (11715501_s_at) / RFU REEP3 (11722064_at) / Fold change /veh REEP3 (11722064_at) / RFU IGLL1 (11728026_x_at) / Fold change /veh IGLL1 (11728026_x_at): dose or concentration left out as unconfirmed. In kind it is cell-based, human.

For `Nc1ncn([C@@H]2O[C@H](CO)[C@@H](O)[C@H]2O)c(=O)n1` [azacitidine], the “Fold change vs veh, CUX1” value was determined as 0.72.
